Experimental findings from ChEMBL document CHEMBL5223065, “Targeting the protease of West Nile virus” (RSC Med Chem, 2021) are described below.

Structures are written as SMILES. *1 amine or outer side, *2 acyl side, *3 side chain or, on linkers, in order; H or OH if unused. Where a SMILES comes first, the peptide text is derived from it. [ ]: non-standard residue; d: D form. X1 = N=C(N)N[C@@H](CCCCN[*:1])C(=O)[*:2]; βAla = NCCC(=O)O Some results are limits rather than exact numbers.

Data set [1] is described as follows: Cytotoxicity against golden hamster BHK-21 cells incubated for 24 hrs by ATP-lite assay. The data set is classed as toxicity, cell-based, Mesocricetus auratus.
The test system of data set [2] is West Nile virus. Description: Antiviral activity against West Nile virus New York 99 infected in golden hamster BHK-21 cells co-expressing renilla luciferase assessed as inhibition of viral […] replication incubated for 24 hrs. The note with it: New York 99, BHK-21, 24 h. The data set is classed as functional, organism-based.
Data set [3] concerns dengue virus type 2. Description: Antiviral activity against DENV2 infected in human A549 cells measured after 42 hrs by plaque reduction assay. To be noted: A549, 42 h. The data set is classed as functional, organism-based. A general note: Plaque reduction counts the foci of infection that form in a cell layer.
For data set [4], the system named is Zika virus. Description: Antiviral activity against Zika virus Puerto Rico strain PRVABC59 infected in human A549 cells measured after 42 hrs incubation under dark conditions by plaque reduction assay. The data set is classed as functional, organism-based. To be noted: Puerto Rico strain PRVABC59, A549, 42 h.
The nature of data set [5]: Cytotoxicity against human A549 cells incubated for 42 hrs by MTT assay. The data set is classed as toxicity, cell-based. A general note: Tetrazolium assays rely on reduction of a dye to a coloured formazan, in cell work by metabolically active cells.
Data set [6] concerns West Nile virus. Description: Antiviral activity against West Nile virus infected in human A549 cells measured after 42 hrs by plaque reduction assay. The data set is classed as functional, organism-based.
The nature of data set [7]: Inhibition of DENV3 NS2B (50 to 95 residues)-NS3 (1 to 182 residues) protease expressed in Escherichia coli BL21-rosetta cells using Bz-Nle-Lys-Lys-Arg-AMC as substrate preincubated for 10 mins followed by substrate addition and measured every 30 secs. Also noted: species or system dengue virus type 3.
The target in data set [8] is Genome polyprotein (West Nile virus) (UniProt P06935). Description: Inhibition of West Nile virus NS2B-NS3 protease using Bz-nKRR-AMC as substrate assessed as inhibition constant preincubated for 30 mins followed by substrate addition and measured after 60 mins by fluorescence based microplate reader analysis. To be noted: time 90.0 min.
Target sequence in this assay (P06935 whole entry): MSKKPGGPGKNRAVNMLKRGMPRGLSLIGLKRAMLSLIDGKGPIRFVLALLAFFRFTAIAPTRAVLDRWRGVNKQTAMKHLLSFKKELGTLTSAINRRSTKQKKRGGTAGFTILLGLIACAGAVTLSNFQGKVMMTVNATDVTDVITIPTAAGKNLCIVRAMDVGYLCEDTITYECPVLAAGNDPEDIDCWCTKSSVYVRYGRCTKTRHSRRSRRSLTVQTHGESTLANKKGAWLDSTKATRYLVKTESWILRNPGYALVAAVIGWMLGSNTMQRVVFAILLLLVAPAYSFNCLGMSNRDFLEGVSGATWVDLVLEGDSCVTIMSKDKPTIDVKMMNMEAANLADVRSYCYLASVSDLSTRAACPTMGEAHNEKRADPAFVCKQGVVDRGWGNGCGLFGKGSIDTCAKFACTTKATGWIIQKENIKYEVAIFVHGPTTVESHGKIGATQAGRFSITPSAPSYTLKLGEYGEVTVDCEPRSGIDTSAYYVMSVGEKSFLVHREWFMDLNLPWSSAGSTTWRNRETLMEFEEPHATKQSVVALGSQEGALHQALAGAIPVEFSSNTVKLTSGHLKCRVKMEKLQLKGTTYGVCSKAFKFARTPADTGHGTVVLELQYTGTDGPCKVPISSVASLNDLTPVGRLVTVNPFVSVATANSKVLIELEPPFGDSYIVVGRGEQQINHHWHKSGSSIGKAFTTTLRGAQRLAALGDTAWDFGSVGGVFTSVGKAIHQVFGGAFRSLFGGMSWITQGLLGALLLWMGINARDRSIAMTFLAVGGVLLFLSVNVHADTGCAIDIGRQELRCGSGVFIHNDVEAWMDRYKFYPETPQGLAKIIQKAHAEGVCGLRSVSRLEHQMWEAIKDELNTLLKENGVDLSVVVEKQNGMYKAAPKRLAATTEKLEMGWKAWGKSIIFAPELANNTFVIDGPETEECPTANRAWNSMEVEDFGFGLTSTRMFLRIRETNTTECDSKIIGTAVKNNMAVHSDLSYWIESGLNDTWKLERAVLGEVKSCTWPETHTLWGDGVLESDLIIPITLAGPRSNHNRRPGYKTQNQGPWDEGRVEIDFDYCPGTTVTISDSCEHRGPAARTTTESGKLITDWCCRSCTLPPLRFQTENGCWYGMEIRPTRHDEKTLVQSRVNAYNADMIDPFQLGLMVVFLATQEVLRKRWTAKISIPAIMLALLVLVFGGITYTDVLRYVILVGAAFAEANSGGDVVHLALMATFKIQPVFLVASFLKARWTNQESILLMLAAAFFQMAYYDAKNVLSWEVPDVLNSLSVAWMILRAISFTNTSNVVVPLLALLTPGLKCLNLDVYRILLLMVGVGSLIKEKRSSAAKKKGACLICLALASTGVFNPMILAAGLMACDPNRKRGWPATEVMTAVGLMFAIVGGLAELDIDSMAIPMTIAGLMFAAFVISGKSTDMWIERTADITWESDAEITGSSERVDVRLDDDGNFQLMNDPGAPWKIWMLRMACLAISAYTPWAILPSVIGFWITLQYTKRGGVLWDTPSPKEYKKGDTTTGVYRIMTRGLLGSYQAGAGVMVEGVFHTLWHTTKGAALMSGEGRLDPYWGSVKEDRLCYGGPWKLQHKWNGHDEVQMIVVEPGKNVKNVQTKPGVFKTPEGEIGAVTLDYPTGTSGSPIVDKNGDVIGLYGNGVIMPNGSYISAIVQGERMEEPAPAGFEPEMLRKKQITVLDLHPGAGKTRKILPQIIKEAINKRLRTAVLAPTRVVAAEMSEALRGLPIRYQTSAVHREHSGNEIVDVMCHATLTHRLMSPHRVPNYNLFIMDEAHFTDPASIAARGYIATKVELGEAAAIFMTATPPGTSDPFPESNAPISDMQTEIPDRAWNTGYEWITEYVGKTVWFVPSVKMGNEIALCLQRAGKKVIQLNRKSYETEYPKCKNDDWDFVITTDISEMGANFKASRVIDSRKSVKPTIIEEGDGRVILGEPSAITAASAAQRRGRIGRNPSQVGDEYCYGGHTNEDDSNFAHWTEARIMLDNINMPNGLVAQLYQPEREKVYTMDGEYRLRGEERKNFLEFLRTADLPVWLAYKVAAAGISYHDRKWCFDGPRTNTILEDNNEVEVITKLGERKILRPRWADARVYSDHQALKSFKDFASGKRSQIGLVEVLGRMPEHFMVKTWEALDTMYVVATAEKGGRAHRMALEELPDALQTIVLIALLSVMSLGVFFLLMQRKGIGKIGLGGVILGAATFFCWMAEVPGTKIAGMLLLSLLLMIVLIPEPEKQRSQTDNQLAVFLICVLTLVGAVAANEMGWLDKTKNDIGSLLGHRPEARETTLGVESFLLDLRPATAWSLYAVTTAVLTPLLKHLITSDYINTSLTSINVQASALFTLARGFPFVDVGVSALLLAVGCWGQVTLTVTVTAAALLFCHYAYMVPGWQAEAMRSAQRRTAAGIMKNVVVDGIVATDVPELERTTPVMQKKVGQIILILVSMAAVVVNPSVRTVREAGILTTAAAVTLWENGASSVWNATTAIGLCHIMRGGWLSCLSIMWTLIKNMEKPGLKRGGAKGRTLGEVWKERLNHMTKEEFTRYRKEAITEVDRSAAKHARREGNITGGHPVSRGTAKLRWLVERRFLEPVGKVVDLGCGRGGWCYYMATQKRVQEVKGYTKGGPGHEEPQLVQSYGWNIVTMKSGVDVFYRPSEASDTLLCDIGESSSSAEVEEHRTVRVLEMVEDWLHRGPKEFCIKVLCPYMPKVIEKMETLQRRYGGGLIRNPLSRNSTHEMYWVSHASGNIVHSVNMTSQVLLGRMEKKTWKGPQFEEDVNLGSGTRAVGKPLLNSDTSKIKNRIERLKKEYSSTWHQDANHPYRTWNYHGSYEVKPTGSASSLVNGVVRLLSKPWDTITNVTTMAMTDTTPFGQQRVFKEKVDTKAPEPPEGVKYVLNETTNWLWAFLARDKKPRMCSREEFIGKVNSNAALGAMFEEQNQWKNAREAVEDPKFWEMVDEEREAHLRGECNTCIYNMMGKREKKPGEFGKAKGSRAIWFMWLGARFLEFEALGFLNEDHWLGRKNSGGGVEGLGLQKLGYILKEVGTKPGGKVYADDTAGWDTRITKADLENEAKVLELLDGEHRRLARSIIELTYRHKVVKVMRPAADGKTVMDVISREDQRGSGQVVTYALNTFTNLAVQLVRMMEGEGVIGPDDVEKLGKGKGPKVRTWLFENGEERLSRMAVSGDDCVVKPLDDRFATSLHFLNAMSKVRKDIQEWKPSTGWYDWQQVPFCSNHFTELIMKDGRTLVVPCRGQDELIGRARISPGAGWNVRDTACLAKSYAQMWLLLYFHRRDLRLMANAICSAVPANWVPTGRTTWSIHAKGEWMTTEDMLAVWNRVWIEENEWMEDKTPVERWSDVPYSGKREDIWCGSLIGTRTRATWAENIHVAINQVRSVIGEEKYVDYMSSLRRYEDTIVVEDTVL
Data set [9] concerns the target Coagulation factor X (Homo sapiens, UniProt P00742). Description: Inhibition of factor Xa (unknown origin) using CH3OCO-dCha-Gly-Arg-pNA as substrate by […] plate reader analysis.
Data set [10] deals with Prothrombin (Homo sapiens, UniProt P00734). Description: Inhibition of thrombin (unknown origin) using CH3SO2-dCha-Gly-Arg-pNA as substrate by […] plate reader analysis.
Data set [11] has as its system Zika virus. Description: Antiviral activity against Zika virus Puerto Rico strain PRVABC59 infected in human A549 cells measured after 48 hrs by plaque reduction assay. The data set is classed as functional, organism-based. The note with it: Puerto Rico strain PRVABC59, A549, 48 h.
For data set [12], the system named is West Nile virus. Description: Antiviral activity against West Nile virus NY99 infected in human A549 cells measured after 48 hrs by plaque reduction assay. The note with it: NY99, A549, 48 h. The data set is classed as functional, organism-based.
Data set [13] deals with dengue virus type 2. Description: Antiviral activity against DENV2 New Guinea C infected in human A549 cells measured after 48 hrs by plaque reduction assay. The data set is classed as functional, organism-based. To be noted: A549, 48 h.
The test system of data set [14] is dengue virus type 2. Description: Antiviral activity against DENV2 infected in golden hamster BHK-21 cells preincubated with virus for 18 hrs followed by compound addition and measured after 24 hrs by plaque reduction assay. The data set is classed as functional, organism-based.
Data set [15] can be described thus: Cytotoxicity against golden hamster BHK-21 cells incubated for 24 hrs by CCK-8 assay. The data set is classed as toxicity, cell-based, Mesocricetus auratus.
Data set [16] relates to West Nile virus. Description: Inhibition of West Nile virus EG101 NS2BH-NS3 protease expressed in Escherichia coli Top10 F' cells using Boc-Gly-Lys-Arg-AMC as substrate preincubated with compound for 15 mins followed by substrate addition and measured after 15 mins by fluorescence based assay. To be noted: time 30.0 min.
Data set [17] is described as follows: Inhibition of Dengue virus 4 NS2B-NS3 protease using Benzoyl-Nle-Lys-Arg-Arg-AMC as substrate preincubated for 1 hrs followed by substrate addition and measured after 10 mins by fluorescence based plate reader analysis. Details: species or system dengue virus type 4.
Data set [18] relates to West Nile virus. Description: Antiviral activity against West Nile virus NY003356V2 infected in human A549 cells measured after 48 hrs by plaque reduction assay. The data set is classed as functional, organism-based. The note with it: NY003356V2, A549, 48 h.
In data set [19] the target is Genome polyprotein (West Nile virus) (UniProt P06935). Description: Uncompetitive inhibition of recombinant West Nile virus NS2B-NS3 protease using Pyr-RTKR-AMC as substrate assessed as inhibition constant preincubated for 15 mins followed by substrate addition.
Target sequence in this assay (P06935 1371-1501 limits assumed): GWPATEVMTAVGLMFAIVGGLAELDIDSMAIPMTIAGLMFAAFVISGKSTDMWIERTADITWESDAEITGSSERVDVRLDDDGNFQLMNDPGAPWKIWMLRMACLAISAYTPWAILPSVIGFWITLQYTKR
Target sequence in this assay (P06935 1502-2120 limits assumed): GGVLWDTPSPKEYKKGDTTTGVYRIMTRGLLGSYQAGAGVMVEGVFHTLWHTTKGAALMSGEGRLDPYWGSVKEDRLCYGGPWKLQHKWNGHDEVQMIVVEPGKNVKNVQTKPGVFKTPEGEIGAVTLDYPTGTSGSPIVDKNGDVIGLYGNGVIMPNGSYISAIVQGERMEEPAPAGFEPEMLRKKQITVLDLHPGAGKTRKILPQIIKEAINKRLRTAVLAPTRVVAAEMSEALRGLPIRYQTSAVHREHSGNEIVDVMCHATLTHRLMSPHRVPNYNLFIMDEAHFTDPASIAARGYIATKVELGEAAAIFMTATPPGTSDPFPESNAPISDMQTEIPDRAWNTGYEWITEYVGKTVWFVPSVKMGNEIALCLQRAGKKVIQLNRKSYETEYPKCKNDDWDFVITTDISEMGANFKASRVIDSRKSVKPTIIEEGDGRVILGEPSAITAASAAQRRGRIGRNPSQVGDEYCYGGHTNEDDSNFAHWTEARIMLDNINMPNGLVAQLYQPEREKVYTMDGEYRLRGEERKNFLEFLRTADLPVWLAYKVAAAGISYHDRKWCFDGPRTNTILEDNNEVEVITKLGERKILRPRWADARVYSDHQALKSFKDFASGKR
Data set [20] has as its system dengue virus type 2. Description: Antiviral activity against DENV2 infected in African green monkey Vero cells assessed as inhibition of viral infection by virucidal assay. The data set is classed as functional, organism-based.
Data set [21] can be described thus: Cytotoxicity against African green monkey Vero cells incubated for 24 hrs by MTT assay. The data set is classed as toxicity, cell-based. To be noted: chlorocebus sabaeus.
Data set [22] deals with dengue virus type 4. Description: Antiviral activity against DENV4 infected in African green monkey Vero cells assessed as inhibition of viral infection by virucidal assay. The data set is classed as functional, organism-based.
Data set [23] deals with dengue virus type 1. Description: Antiviral activity against DENV1 infected in African green monkey Vero cells assessed as inhibition of viral infection by virucidal assay. The data set is classed as functional, organism-based.
Data set [24] concerns dengue virus type 3. Description: Antiviral activity against DENV3 infected in African green monkey Vero cells assessed as inhibition of viral infection by virucidal assay. The data set is classed as functional, organism-based.

Chain of Coagulation factor X (P00742 41-179 limits assumed): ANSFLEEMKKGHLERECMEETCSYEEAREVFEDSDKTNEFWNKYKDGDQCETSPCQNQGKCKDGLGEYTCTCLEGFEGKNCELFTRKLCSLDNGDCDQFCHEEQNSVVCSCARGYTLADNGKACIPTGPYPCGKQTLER
Chain of Coagulation factor X (P00742 235-488 limits assumed): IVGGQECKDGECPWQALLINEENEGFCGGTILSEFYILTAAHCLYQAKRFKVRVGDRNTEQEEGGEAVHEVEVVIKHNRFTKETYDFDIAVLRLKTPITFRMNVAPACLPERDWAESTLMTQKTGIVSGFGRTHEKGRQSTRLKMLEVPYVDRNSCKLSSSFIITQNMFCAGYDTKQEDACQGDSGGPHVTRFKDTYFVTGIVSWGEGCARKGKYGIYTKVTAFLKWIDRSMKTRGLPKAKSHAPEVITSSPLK

Consider `Clc1cc(OCc2nnc3sc(Cc4ccccc4)nn23)c(Cl)cc1OCc1nnc2sc(Cc3ccccc3)nn12`, for which the CC50 at 24 h in data set [1] was greater than 200 µM. Moreover, in data set [2], the EC50 amounted to 17 µM.
Turning to `Oc1cccc(-c2c3nc(c(-c4cccc(O)c4)c4ccc([nH]4)c(-c4cccc(O)c4)c4nc(c(-c5cccc(O)c5)c5ccc2[nH]5)CC4)C=C3)c1` [TEMOPORFIN], the EC50 in [3] is 0.02 µM; in data set [4] it was 0.022 µM; in [6] (A549, 42 h), 0.01 µM. The same molecule yielded a CC50 at 42 h in data set [5] of 40.7 µM. In data set [6] (A549, time 42 hrs), this molecule registered an EC90 of 0.03 µM.
In turn, `NCc1ccc(-c2ncc(OCC3CCNCC3)nc2-c2ccc(-c3cn[nH]c3)cc2)cc1` came in with an IC50 in data set [7] of 0.2 µM.
As to `N=C(N)Nc1ccc(OC(=O)c2ccc(NC(=N)N)cc2)cc1`, in [8], the K stood at 4.6 µM.
For `N=C(N)N[C@H]1CC[C@H](CNC(=O)[C@H](CCCCN)NC(=O)[C@H](CCCCN)NC(=O)Cc2ccc(Cl)c(Cl)c2)CC1`, the Ki was greater than 200 µM in data set [9] and greater than 500 µM in data set [10].
Consider `O=C1OC2(c3ccccc31)c1cc(I)c(O)c(I)c1Oc1c2cc(I)c(O)c1I` [ERYTHROSINE], for which the figures for the concentration for a half-maximal effect (EC50) in [11], in data set [12] and in [13] were 0.62 µM, 0.66 µM and 1.2 µM, respectively.
For `Cc1ccc(C(=O)c2cc(O)c(O)c([N+](=O)[O-])c2)cc1` [TOLCAPONE], a half-maximal response in data set [14] (EC50) required 2 µM. The molecule also yielded a CC50 at 24 h in data set [15] of 29.2 µM.
In the case of `Oc1ccccc1C(Nc1nccs1)c1ccc2cccnc2c1O` (stereo not drawn), the K in [16] was 3.4 µM.
Consider `N=C(N)N[C@H]1CCCCNC(=O)[C@H](CCCCN)NC(=O)[C@H](CCCCN)NC(=O)CCNC(=O)CNC(=O)CNC1=O` (cyclo(GG[βAla]KK[X1])), for which the affinity in data set [17] corresponds to a Ki of 0.16 µM.
Take `O=C1C=C/C(=N\Nc2ccc([N+](=O)[O-])cc2Cl)C=C1C(=O)Nc1cccc(Cl)c1`: the results for the EC50 in [11], in data set [13] and in data set [18] were 1 µM, 0.81 µM and 1.27 µM, respectively. The CC50 at 42 h in [5] was found to be 48.8 µM.
Take `CCc1ccc(NC(=O)CSc2nc3ccc(NC(=O)CSc4nnc(-c5ccccc5)[nH]4)cc3s2)cc1`: the K in [19] worked out at 2.8 µM.
With `C=CCc1ccc(OCc2cn(Cc3ccccc3Br)nn2)c(OC)c1`, the EC50 in data set [20], in [22], in data set [23] and in [24] was 14 µM throughout. In [21], this molecule yielded a half-maximal cytotoxic concentration (CC50) at 24 h greater than 300 µM.

Usually CC50 stands for the concentration that lowers cell viability or growth by half. By EC50 is commonly meant the concentration needed to bring the measured effect to its halfway point. What is called EC90 is the concentration needed for an effect of 90%. The term IC50 denotes the concentration at which inhibition is half-maximal. As a reminder, the Ki is the dissociation constant of the complex between target and ligand, obtained from inhibition or displacement.
